Results taken from patent publication US5498624A, “Selected pyrazolyl derivatives” (Monsanto Company, priority 1995, dated 1996).

Columns and labels:
[1] = test system: Erysiphe graminis f. sp. hordei; assay: Barley Powdery Mildew Foliar Assay (BPM Prot); assay type: in vivo; settings: inoculation 24 hours after application
Description: A) Pathogen/Inoculum Production--Leaf material infected with the barley powdery mildew fungus, Erysiphe graminis f. sp. hordei, is maintained continuously on barley seedlings, cv. Perry.
B) Host Propagation--Barley seedlings, cv. Perry, are grown to second leaf stage in a commercial soil preparation, "Metro Mix 200", amended with 100 gm/ft^3 slow release "Osmocote 14-14-14". A sufficient number of seeds are planted per pot (5 cm in diameter) in order to insure the production of 3-5 vigorous seedlings per pot. The plants are maintained in a growth chamber set at 21° C., 80% RH with a 12 hour photoperiod. Light intensity is set at 300 me/m^2/ sec.
C) Test Compound Preparation
1) Experimental compounds--Each or the compounds of the present invention are applied at 500, 100, and 20 ppm. Formulation is generally in […], 59.95% water, and 0.05% Tween 20. Four pots (with 3-5 plants/pot) at each rate are treated. The application volume is 8 ml per treatment. Formulated materials, such as commercially available products, are brought up to the appropriate treatment volume with water containing Tween®20,05% v/v.
2) Controls and standards--The commercial standards used are Corbel® (active ingredient fenpropimorph) and NUSTAR® (active ingredient flusilazole), both at the rate of 20 and/or 10 ppm. A set of control plants, treated with the formulation blank and inoculated, are also included.
D) Compound Application--Compound is sprayed onto the leaves of the plants (pots positioned on a rotating table) using a DeVilbiss Model 152 hand sprayer. Coverage of the first leaf is essential. After the plants have thoroughly dried they are returned to the growth room and randomized.
E) Inoculation/Incubation--Inoculation of the test plants takes place 24 hours after compound application. Inoculation is accomplished by gently shaking plants previously infected with the Erysiphe graminis f. sp. hordeii fungus over the test plants. This process liberates a cloud of spores which effectively and uniformly fall onto the test plants. After inoculation the plants are returned to the environmental conditions under which they were grown.
F) Evaluation--The test is assessed 6-7 days after inoculation. Treatments are evaluated by visually estimating the percentage of the leaf area infected on the first leaf. Three ratings are made on each pot (replicate). Phytotoxicity and growth effects are also noted at this time.
G) Data--All replicate data is recorded as a percent disease value. Treatment means are calculated and percent disease control is determined by the formula: (control mean--treatment mean)*100/control mean. The inoculated control treatment mean is used for this calculation. The percent protection values for the compounds of the present invention are as set out in the Table below.

Septoria nodorum = assay: Wheat Glume Blotch Foliar Assay, protectant (WGB Prot); assay type: in vivo; settings: application two days pre-inoculation
Description: A) Host Propagation--Winter wheat plants, cv. Caldwell, are grown in 5.7 cm^2 pots, three per pot, and maintained in a growth chamber set at 20° C., 80% RH with a 12 hour photoperiod.
B) Compound Preparation--A 1.0% stock solution of each of the compounds of the present invention is first prepared utilizing an appropriate solvent such as acetone, water or DMSO. This stock is then used to prepare the final spray solution which contains the compound at the desired dosage, eg 100 ppm and 20 ppm, acetone at 20% v/v, Tween®20 at .05% w/v, and water at about 80%. Commercial standard used is tebuconazole at equivalent rates.
C) Compound Application, Seedlings are sprayed at the two-leaf stage (GS 12) using a DeVilbiss Model 152 hand operated sprayer set at 15-20 psi. Six ml of the test solution per treatment are applied to three pots. In the protectant assay (EXAMPLE 8), the compound application is made two days pre-inoculation. In the curative assay (EXAMPLE 9), the compound is applied during a brief interruption of the disease incubation period two days post-inoculation.
D) Pathogen Production/Inoculation--The wheat glume blotch fungus, Septoria nodorum, is maintained in the pycnidial state on yeast malt agar (YMA) and transferred weekly by streaking a suspension of conidia obtained from a ten to twelve day old sporulating culture onto fresh YMA plates. The plates are incubated at 20° C. with a 12 hour photoperiod.
Test inoculum is prepared by flooding seven day old culture plates with deionized water amended with Tween®20 (0.1% v/v) and gently scraping the pycnidia to release the extruding masses of conidia. The resulting spore suspension is filtered through two layers of cheese cloth and adjusted to 4×10^6 spores/ml utilizing the Tween®20 solution.
Forty-eight hours after the compound application and prior to inoculation, the test plants are preconditioned for at least one hour in a dark growth chamber set at 20° C. and 100% RH. After the preconditioning period is over, the conidial suspension is applied to run-off using a DiVilbiss hand operated sprayer. The plants are then returned to the preconditioning chamber and incubated at the same settings for 96 hours. Light is supplied to the plants during the last twelve hours of incubation. At the end of the 96 hour period, the plants are returned to the environmental conditions under which they were grown.
E) Test Evaluation--Eight to ten days after removal from the high humidity chamber, or twelve to fourteen days after inoculation, treatments are evaluated by visually estimating the percentage of the leaf area (on the first leaf) covered with lesions. Three ratings are made on each pot which constitutes a replicate. Each replicate then receives a numerical mean by averaging the three values. Percent disease, as well as percent control values are calculated. The percent control values obtained from these assays for the compounds of the present invention are as set out in the Table below.

C[C@@H]1CCC[C@H](c2ccccc2NC(=O)c2cn(C)nc2C(F)F)C1 (relative stereo) [Number 2, 1H-pyrazole-4-carboxamide, 3-(difluoromethyl)-1-methyl-N-[2-(-3-methylcyclohexyl)phenyl]-, cis-]
BPM Prot percent disease control ([1]; 20 ppm foliar): 90% | BPM Prot percent disease control ([1]; 100 ppm foliar): 96% | BPM Prot percent disease control ([1]; 500 ppm foliar): 85% | WGB Prot percent control (Septoria nodorum; 20 ppm, * = averaged value): 56% | WGB Prot percent control (Septoria nodorum; 100 ppm, * = averaged value): 86% | WGB Prot percent control (Septoria nodorum; 500 ppm, wheat): 99%

Cn1cc(C(=O)Nc2ccccc2[C@H]2CC[C@H](C)CC2)c(C(F)(F)F)n1 [Number 4, 1H-pyrazole-4-carboxamide, 1-methyl-N-[2-(4-methylcyclohexyl)phenyl]-3-(trifluoromethyl)-, trans-]
WGB Prot percent control (Septoria nodorum; 20 ppm, * = averaged value): 81% | WGB Prot percent control (Septoria nodorum; 100 ppm, * = averaged value): 97%

Cn1cc(C(=O)Nc2ccccc2[C@@H]2CCC[C@@H](C(F)(F)F)C2)c(C(F)F)n1 (relative stereo) [Number 6]
WGB Prot percent control (Septoria nodorum; 20 ppm, * = averaged value): 70% | WGB Prot percent control (Septoria nodorum; 100 ppm, * = averaged value): 86% | WGB Prot percent control (Septoria nodorum; 500 ppm, wheat): 89%

CC[C@H]1CC[C@@H](c2ccccc2NC(=O)c2cn(C)nc2C(F)F)CC1 [Number 1, 1H-pyrazole-4-carboxamide, 3-(difluoromethyl)-N-[2-(4-ethylcyclohexyl)phenyl]-1-methyl-, cis-]
BPM Prot percent disease control ([1]; 500 ppm foliar): 88%

Cn1cc(C(=O)Nc2ccccc2C2CCC(C)(C)CC2)c(C(F)F)n1 [Number 5, 1H-pyrazole-4-carboxamide, 3-(difluoromethyl)-N-(2-(4,4-dimethylcyclohexyl)phenyl]-1-methyl-]
WGB Prot percent control (Septoria nodorum; 20 ppm, * = averaged value): 47% | WGB Prot percent control (Septoria nodorum; 100 ppm, * = averaged value): 93%

C[C@H]1CCC[C@H](c2ccccc2NC(=O)c2cn(C)nc2C(F)F)C1 (relative stereo) [Number 3, 1H-pyrazole-4-carboxamide, 3-(difluoromethyl)-1-methyl-N-[2-(3-methylcyclohexyl)phenyl]-, trans-]
BPM Prot percent disease control ([1]; 20 ppm foliar): 98% | BPM Prot percent disease control ([1]; 100 ppm foliar): 98% | WGB Prot percent control (Septoria nodorum; 20 ppm, * = averaged value): 79% | WGB Prot percent control (Septoria nodorum; 100 ppm, * = averaged value): 90%
